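Exposure lasted 48 hours, with cells grown in 96-well plates and compounds tested at five concentrations. GI50: concentration for 50% inhibition of growth.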 Activity calls are given as the source filed them. Rule as the data show it: active = GI50 up to about 1.1 µM and inactive = higher.
Assays:
Assay in all cases: growth of human tumour cells (NCI), 48 h
786-0 = tested on: 786-0
A498 = tested on: A498
A549 = tested on: A549
ACHN = tested on: ACHN
BT-549 = tested on: BT-549
CAKI-1 = tested on: CAKI-1
CCRF-CEM = tested on: CCRF-CEM
COLO 205 = tested on: COLO 205
DU-145 = tested on: DU-145
EKVX = tested on: EKVX
HCC 2998 = tested on: HCC 2998
HCT-116 = tested on: HCT-116
HCT-15 = tested on: HCT-15
HL-60 = tested on: HL-60
HOP-62 = tested on: HOP-62
HOP-92 = tested on: HOP-92
HT-29 = tested on: HT-29
Hs-578T = tested on: Hs-578T
K562 = tested on: K562
KM12 = tested on: KM12
LOX IMVI = tested on: LOX IMVI
M14 = tested on: M14
MCF7 = tested on: MCF7
MDA-MB-231 = tested on: MDA-MB-231
MDA-MB-435 = tested on: MDA-MB-435
MDA-N = tested on: MDA-N
MOLT-4 = tested on: MOLT-4
Malme-3M = tested on: Malme-3M
NCI-H226 = tested on: NCI-H226
NCI-H23 = tested on: NCI-H23
NCI-H460 = tested on: NCI-H460
NCI-H522 = tested on: NCI-H522
NCI/ADR-RES = tested on: NCI/ADR-RES
OVCAR-3 = tested on: OVCAR-3
OVCAR-4 = tested on: OVCAR-4
OVCAR-5 = tested on: OVCAR-5
OVCAR-8 = tested on: OVCAR-8
PC-3 = tested on: PC-3
RXF 393 = tested on: RXF 393
SF-268 = tested on: SF-268
SF-295 = tested on: SF-295
SF-539 = tested on: SF-539
SK-MEL-28 = tested on: SK-MEL-28
SK-MEL-2 = tested on: SK-MEL-2
SK-MEL-5 = tested on: SK-MEL-5
SK-OV-3 = tested on: SK-OV-3
SN12C = tested on: SN12C
SNB-19 = tested on: SNB-19
SNB-75 = tested on: SNB-75
SR = tested on: SR
SW-620 = tested on: SW-620
T47D = tested on: T47D
TK-10 = tested on: TK-10
U-251 = tested on: U-251
UACC-257 = tested on: UACC-257
UACC-62 = tested on: UACC-62
UO-31 = tested on: UO-31
IGROV-1 = tested on: IGROV-1

SMILES: CSC(=NC1=NC(C(F)(F)F)(C(F)(F)F)N=C(c2ccccc2)O1)SC
- GI50 (786-0): 16.4 µM (inactive)
- GI50 (A498): 17.7 µM (inactive)
- GI50 (A549): 10.5 µM (inactive)
- GI50 (ACHN): 3.53 µM (inactive)
- GI50 (BT-549): 10.8 µM (inactive)
- GI50 (CAKI-1): 4.49 µM (inactive)
- GI50 (CCRF-CEM): 6.92 µM (inactive)
- GI50 (COLO 205): 14.6 µM (inactive)
- GI50 (DU-145): 6.9 µM (inactive)
- GI50 (EKVX): 9.27 µM (inactive)
- GI50 (HCC 2998): 12.5 µM (inactive)
- GI50 (HCT-116): 4.01 µM (inactive)
- GI50 (HCT-15): 4.88 µM
- GI50 (HL-60): 30.9 µM (inactive)
- GI50 (HOP-62): 9.1 µM (inactive)
- GI50 (HOP-92): 7.8 µM (inactive)
- GI50 (HT-29): 16.4 µM (inactive)
- GI50 (Hs-578T): 14.2 µM (inactive)
- GI50 (K562): 6.1 µM (inactive)
- GI50 (KM12): 4.91 µM (inactive)
- GI50 (LOX IMVI): 5.75 µM (inactive)
- GI50 (M14): 19 µM (inactive)
- GI50 (MCF7): 14.8 µM (inactive)
- GI50 (MDA-MB-231): 20.3 µM (inactive)
- GI50 (MDA-MB-435): 17.5 µM (inactive)
- GI50 (MDA-N): 17.3 µM (inactive)
- GI50 (MOLT-4): 6.07 µM (inactive)
- GI50 (Malme-3M): 16.3 µM (inactive)
- GI50 (NCI-H226): 26.9 µM (inactive)
- GI50 (NCI-H23): 7.31 µM (inactive)
- GI50 (NCI-H460): 12.2 µM (inactive)
- GI50 (NCI-H522): 3.1 µM (inactive)
- GI50 (NCI/ADR-RES): 5.31 µM (inactive)
- GI50 (OVCAR-3): 7.46 µM (inactive)
- GI50 (OVCAR-4): 10.3 µM (inactive)
- GI50 (OVCAR-5): 26.4 µM (inactive)
- GI50 (OVCAR-8): 5.98 µM (inactive)
- GI50 (PC-3): 5.14 µM (inactive)
- GI50 (RXF 393): 5.77 µM (inactive)
- GI50 (SF-268): 5.07 µM (inactive)
- GI50 (SF-295): 7.13 µM (inactive)
- GI50 (SF-539): 29.2 µM (inactive)
- GI50 (SK-MEL-28): 38.7 µM (inactive)
- GI50 (SK-MEL-2): 16 µM (inactive)
- GI50 (SK-MEL-5): 16.1 µM (inactive)
- GI50 (SK-OV-3): 16.4 µM (inactive)
- GI50 (SN12C): 17.1 µM (inactive)
- GI50 (SNB-19): 5.22 µM (inactive)
- GI50 (SNB-75): 3.15 µM (inactive)
- GI50 (SR): 10.7 µM (inactive)
- GI50 (SW-620): 9.38 µM (inactive)
- GI50 (T47D): 3.1 µM (inactive)
- GI50 (TK-10): 7.93 µM (inactive)
- GI50 (U-251): 4.12 µM (inactive)
- GI50 (UACC-257): 22 µM (inactive)
- GI50 (UACC-62): 20 µM (inactive)
- GI50 (UO-31): 24 µM (inactive)

SMILES: O=C1Nc2ccccc2C1=Nc1ccc(S(=O)(=O)Nc2nccs2)cc1
- GI50 (786-0): > 100 µM (inactive)
- GI50 (A498): > 100 µM (inactive)
- GI50 (A549): > 100 µM (inactive)
- GI50 (ACHN): > 100 µM (inactive)
- GI50 (BT-549): > 100 µM (inactive)
- GI50 (CAKI-1): > 100 µM (inactive)
- GI50 (CCRF-CEM): > 100 µM (inactive)
- GI50 (COLO 205): > 100 µM (inactive)
- GI50 (DU-145): > 100 µM (inactive)
- GI50 (EKVX): > 100 µM (inactive)
- GI50 (HCC 2998): > 100 µM (inactive)
- GI50 (HCT-116): > 100 µM (inactive)
- GI50 (HCT-15): > 100 µM
- GI50 (HL-60): > 100 µM (inactive)
- GI50 (HOP-62): > 100 µM (inactive)
- GI50 (HOP-92): > 100 µM (inactive)
- GI50 (HT-29): > 100 µM (inactive)
- GI50 (Hs-578T): > 100 µM (inactive)
- GI50 (IGROV-1): > 100 µM (inactive)
- GI50 (K562): > 100 µM (inactive)
- GI50 (KM12): > 100 µM (inactive)
- GI50 (LOX IMVI): > 100 µM (inactive)
- GI50 (M14): > 100 µM (inactive)
- GI50 (MCF7): > 100 µM (inactive)
- GI50 (MDA-MB-231): > 100 µM (inactive)
- GI50 (MDA-MB-435): 92.5 µM (inactive)
- GI50 (MDA-N): > 100 µM (inactive)
- GI50 (MOLT-4): > 100 µM (inactive)
- GI50 (Malme-3M): > 100 µM (inactive)
- GI50 (NCI-H226): > 100 µM (inactive)
- GI50 (NCI-H23): > 100 µM (inactive)
- GI50 (NCI-H460): > 100 µM (inactive)
- GI50 (NCI-H522): > 100 µM (inactive)
- GI50 (NCI/ADR-RES): > 100 µM (inactive)
- GI50 (OVCAR-3): > 100 µM (inactive)
- GI50 (OVCAR-4): > 100 µM (inactive)
- GI50 (OVCAR-5): > 100 µM (inactive)
- GI50 (OVCAR-8): > 100 µM (inactive)
- GI50 (PC-3): > 100 µM (inactive)
- GI50 (RXF 393): > 100 µM (inactive)
- GI50 (SF-268): > 100 µM (inactive)
- GI50 (SF-295): > 100 µM (inactive)
- GI50 (SF-539): 48.3 µM (inactive)
- GI50 (SK-MEL-28): > 100 µM (inactive)
- GI50 (SK-MEL-2): > 100 µM (inactive)
- GI50 (SK-MEL-5): > 100 µM (inactive)
- GI50 (SK-OV-3): > 100 µM (inactive)
- GI50 (SN12C): > 100 µM (inactive)
- GI50 (SNB-19): > 100 µM (inactive)
- GI50 (SNB-75): > 100 µM (inactive)
- GI50 (SR): 51.8 µM (inactive)
- GI50 (SW-620): > 100 µM (inactive)
- GI50 (T47D): > 100 µM (inactive)
- GI50 (TK-10): > 100 µM (inactive)
- GI50 (U-251): > 100 µM (inactive)
- GI50 (UACC-257): > 100 µM (inactive)
- GI50 (UACC-62): > 100 µM (inactive)
- GI50 (UO-31): > 100 µM (inactive)
